Data: paper PMC6091977, “The permeation mechanism of organic cations through a CNG mimic channel” (PLoS Computational Biology, 2018)

Columns and labels:
NaK2CNG-E chimera = experiment: crystal structure; sitting drop vapor diffusion at 20°C, 40-44% MPD, 100 mM MES pH 6.5, 25 mM glycine; protein purified in DM with DMA·HCl; space group P222_(1); tetramers AABB and CCDD built by two-fold crystallographic symmetry
[1] = molecular target: T1, CNGA1 channel (bovine CNGA1, bCNGA1) (Bos taurus, UniProt Q00194); experiment: cell-based
T1 sequence (Q00194 1-690): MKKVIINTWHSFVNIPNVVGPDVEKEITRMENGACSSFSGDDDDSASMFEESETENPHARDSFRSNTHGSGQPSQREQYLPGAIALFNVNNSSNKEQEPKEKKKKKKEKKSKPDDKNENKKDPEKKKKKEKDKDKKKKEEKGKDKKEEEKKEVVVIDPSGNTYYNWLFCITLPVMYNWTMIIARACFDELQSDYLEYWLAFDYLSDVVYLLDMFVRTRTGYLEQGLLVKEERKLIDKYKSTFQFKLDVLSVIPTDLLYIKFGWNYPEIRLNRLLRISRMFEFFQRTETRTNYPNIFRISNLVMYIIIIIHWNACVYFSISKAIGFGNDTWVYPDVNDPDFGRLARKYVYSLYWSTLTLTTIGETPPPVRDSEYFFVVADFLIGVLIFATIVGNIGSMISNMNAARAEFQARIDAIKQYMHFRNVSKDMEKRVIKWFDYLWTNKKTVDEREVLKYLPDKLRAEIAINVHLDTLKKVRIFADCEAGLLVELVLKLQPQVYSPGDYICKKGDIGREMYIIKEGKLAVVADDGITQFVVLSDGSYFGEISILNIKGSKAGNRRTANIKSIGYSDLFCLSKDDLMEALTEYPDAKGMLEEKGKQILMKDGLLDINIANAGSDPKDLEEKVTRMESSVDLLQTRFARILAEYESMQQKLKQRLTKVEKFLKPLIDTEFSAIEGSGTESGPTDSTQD

[2] = molecular target: T1, CNGA1 channel (bovine CNGA1, bCNGA1); experiment: excised-patch voltage clamp; current activation; type: biochemical; design: full-length CNGA1 expressed alone from cRNA in Xenopus laevis oocytes; excised patches; conditions: agonist at 1 mM; DMA as charge carrier; pH 7.4

NaK2CNG-E chimera was tested, and the stoichiometry N (NaK2CNG-E chimera) was 4.
Work on `CNC` [DMA, dimethylammonium] yielded a Kd [1] of 52 mM.
`Nc1nc2c(ncn2[C@@H]2O[C@@H]3COP(=O)(O)O[C@H]3[C@H]2O)c(=O)[nH]1` [cGMP] was tested, and the “excised-patch voltage clamp; current activation” value [2] was “The cGMP activated current was measured as the difference between the current recorded in the presence”.
